Experimental data published in patent US4634704A, “Anti-allergic five membered heterocyclic ring containing N-(bicyclic heterocycyl)-4-piperidinamines” (Janssen Pharmaceutica, N.V., priority 1984, dated 1987).
Where two headings read alike, the source gives them in different places.

Assays:
[1] = system: compound 48/80-induced lethality; experiment: Protection of rats from compound 48/80-induced lethality; assay type: in vivo, rat (male, inbred Wistar strain); conditions: Rattus norvegicus, 4 h, read-out: compound 48/80 lethality test in rats-ED50, dose protecting 50% of animals; subcutaneous or oral, 1 h before compound 48/80 0.5 mg/kg i.v.; survival after 4 h
Method: Protection of rats from compound 48/80-induced lethality.
The protection from compound 48/80-induced lethal circulatory collapse appears to be a simple way of evaluating quantitatively the antihistaminic activity of test compounds. Male rats of an inbred Wistar strain, weighing 240-260 g were used in the experiment. After overnight starvation the rats were transferred to conditioned laboratories (temp.=21±1° C., relative humidity=65±5%).
The rats were treated subcutaneously or orally with a test compound or with the solvent (NaCl solution, 0.9%). […] Survival after 4 hours is therefore considered to be a safe criterion of a protective effect of drug administration.
The ED50 -values of the compounds of formula (I) are listed in the first column of table 1. Said ED50 -values are the values in mg/kg body weight at which the tested compounds protect 50% of the tested animals against compound 48/80-induced lethality.

[2] = system: effects of serotonin in the gastric lesion test; experiment: Antagonistic activity on the effects of serotonin in the gastric lesion test (lesions induced by compound 48/80); assay type: in vivo, rat (male, Wistar inbred strain)
Text: The compounds of formula (I) and the pharmaceutically acceptable acid addition salts thereof are also potent serotonin-antagonists. The potency of the subject compounds as serotonin-antagonists is clearly evidenced by the results obtained in the following tests wherein the antagonistic activity of the subject compounds on the effect of serotonin is examined.
Antagonistic activity on the effects of serotonin in the gastric lesion test.
The shock, followed by dead, can be avoided if the rats are pretreated with a classical H 1 antagonist.
Male rats of a Wistar inbred strain, weighing 220-250 g, were starved overnight, water being available ad libitum. The test compounds were administered orally as a solution or as a suspension in aqueous medium. A control rat and a "blank" rat received the test compound. One hour later 5-[4-(diphenylmethyl)-1-piperazinylmethyl]-1-methyl-1H-benzimidazole-2-methanol was administered subcutaneously to all rats at the dose of 2.5 mg/kg.
Four hours after the intravenous injection of compound 48/80, the rats were decapitated and the stomachs were removed. Subsequently the stomachs were inspected for distension and contents (blood, fluid, food) and thoroughly rinsed. The macroscopic lesions were scored from 0 to +++, 0 corresponding to the complete absence of visible lesions and the highest score corresponding to reddish rough patches covering more than half the glandular area.

[3] = system: effects of serotonin in the gastric lesion test; conditions: rats injected with compound 48/80; known serotonin-antagonists; cited from earlier work
[4] = Rattus norvegicus; read-out: gastric lesion test ED50

SMILES | ED50 [1] [mg/kg] | ED50 [2, 4] [mg/kg] | prevention of cyanosis of ears and extremities, lesions in the glandular area of the stomach and abnormal gastric distension [3] | further results
Cc1sc(N)nc1CCN1CCC(Nc2nc3ccccc3n2Cc2ccc(F)cc2)CC1 [Compound 94, N-[1-[2-(2-amino-5-methyl-4-thiazolyl)ethyl]-4-piperidinyl]-1-[(4-fluorophenyl)methyl]-1H-benzimidazol-2-amine] | 0.08 | – | – | ED50 ([2]; Rattus norvegicus, read-out: gastric lesion test ED50): 0.08 mg/kg
CNc1nc(CCN2CCC(Nc3nc4ccccc4n3Cc3ccc(F)cc3)CC2)cs1 [Compound 98, 1-[(4-fluorophenyl)methyl]-N-[1-[2-[2-(methylamino)-4-thiazolyl]-ethyl]-4-piperidinyl]-1H-benzimidazol-2-amine] | 0.16 | 0.16 | – | –
O=C(c1ccccc1)N(CCN1CCC(Nc2nc3ccccc3n2Cc2ccc(F)cc2)CC1)c1nccs1 [Compound 100, N-[2-[4-[[1-[(4-fluorophenyl)methyl]-1H-benzimidazol-2-yl]amino]-1-piperidinyl]ethyl]-N-(2-thiazolyl)benzamide] | 0.31 | 0.63 | – | –
CC(=O)N(CCN1CCC(Nc2nc3ccccc3n2Cc2ccc(F)cc2)CC1)c1nccs1 [Compound 102, N-[2-[4-[[1-[(4-fluorophenyl)methyl]-1H-benzimidazol-2-yl]-amino]-1-piperidinyl]ethyl]-N-(2-thiazolyl)acetamide] | 0.16 | 1.25 | – | –
CNC(=O)N(CCN1CCC(Nc2nc3ccccc3n2Cc2ccc(F)cc2)CC1)c1nccs1 [Compound 103, N-[2-[4-[[1-[(4-fluorophenyl)methyl]-1H-benzimidazol-2-yl]amino]-1-piperidinyl]ethyl]-N'-methyl-N-(2-thiazolyl)urea] | 0.08 | 0.63 | – | –
CN(C)CCCSc1ccccc1NC(=O)/C=C/c1ccccc1 [cinanserin] | – | – | prevent completely | –
CN1CCC(=C2c3ccccc3C=Cc3ccccc32)CC1 [cyproheptadine] | – | – | prevent completely | –
CN1C[C@H](CNC(=O)OCc2ccccc2)C[C@@H]2c3cccc4c3c(cn4C)C[C@H]21 [metergoline] | – | – | prevent completely | –
CC[C@@H](CO)NC(=O)[C@@H]1C=C2c3cccc4c3c(cn4C)C[C@H]2N(C)C1 [methysergide] | – | – | prevent completely | –
CN1CCN2c3ccccc3Cc3ccccc3C2C1 (stereo not drawn) [mianserin] | – | – | prevent completely | –
NC(=O)C1(N2CCCCC2)CCN(CCCC(=O)c2ccc(F)cc2)CC1 [pipamperone] | – | – | prevent completely | –
CN1CCC(=C2c3ccccc3CCc3sccc32)CC1 [pizotifen] | – | – | prevent completely | –
O=C(CCCN1CCC2(CC1)C(=O)NCN2c1ccccc1)c1ccc(F)cc1 [spiperone] | – | – | prevent completely | –
